The text below walks through data of patent US12473304B2, “Heterocyclic PAD4 inhibitors” (BRISTOL-MYERS SQUIBB COMPANY, priority 2020, dated 2025).

Each structure is given as a SMILES string.

The term IC50 denotes the concentration that inhibits the measured activity by half.

Sequence of recombinant human PAD4 (Q9UM07 whole entry): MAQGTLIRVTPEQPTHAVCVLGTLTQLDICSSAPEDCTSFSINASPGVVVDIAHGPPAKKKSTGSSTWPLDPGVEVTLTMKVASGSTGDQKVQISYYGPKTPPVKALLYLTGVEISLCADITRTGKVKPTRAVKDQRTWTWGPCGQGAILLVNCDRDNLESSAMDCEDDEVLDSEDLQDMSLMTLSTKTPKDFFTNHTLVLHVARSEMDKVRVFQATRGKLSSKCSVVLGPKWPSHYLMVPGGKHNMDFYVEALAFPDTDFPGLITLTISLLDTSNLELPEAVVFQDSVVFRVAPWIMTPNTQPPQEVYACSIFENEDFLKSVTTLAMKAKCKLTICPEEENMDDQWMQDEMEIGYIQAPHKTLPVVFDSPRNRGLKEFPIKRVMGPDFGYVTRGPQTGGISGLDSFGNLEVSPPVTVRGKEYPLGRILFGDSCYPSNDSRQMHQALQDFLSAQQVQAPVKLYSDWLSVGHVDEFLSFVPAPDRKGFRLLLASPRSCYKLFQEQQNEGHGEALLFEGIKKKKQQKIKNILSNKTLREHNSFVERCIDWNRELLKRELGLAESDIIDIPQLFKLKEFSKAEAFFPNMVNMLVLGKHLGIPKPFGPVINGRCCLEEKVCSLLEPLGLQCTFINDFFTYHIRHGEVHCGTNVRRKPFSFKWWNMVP

This assay deals with recombinant human PAD4 (Homo sapiens (Human), UniProt Q9UM07). In words: RFMS Human PAD4 Functional Assay 2. The format is biochemical. To be noted: RFMS assay 2; 35 nM recombinant human PAD4, 500 μM TSTGGRQGSHH peptide, 2 mM CaCl2, room temperature 30 minutes; read-out: hPAD4 RFMS IC50. How it is done:
RFMS Human PAD4 Functional Assay 2: Compound Preparation: • Stock compounds were dissolved and stored in 100% DMSO. Compound solutions were prepared via serial dilution at 3-fold intervals in DMSO with top compound concentration at 20 μM in each assay. 0.25 μl of compound solution was transferred from the compound plate to the assay plate by using an acoustic dispenser. Final Assay Conditions: • Total reaction volume: 25 μl • Assay buffer: […] pH 7.4, 200 mM NaCl, 2 mM CaCl2, 5 mM DTT • 35 nM recombinant human PAD4 • 500 μM TSTGGRQGSHH peptide • […] DMSO • Stop solution: 10% formic acid
Reaction mixtures were incubated at room temperature for 30 minutes. 10 μl each of the reaction mixtures was then mixed with 40 μl of 10% formic acid in a microtiter plate. The plate was frozen at −80° C. before shipping out on dry ice for RapidFire mass spectroscopy analysis.
Thawed samples were loaded onto the Rapid Fire 300 system (Agilent) wherein they were first sipped for 250 ms and then loaded onto an Agilent “C” (C18) cartridge using a mobile phase of water containing 0.09% formic acid/0.01% trifluoroacetic acid for 3000 ms desalting flowing at a rate of 1.5 ml/min. Once the samples were loaded and washed, a mobile phase of acetonitrile containing 0.09% formic acid/0.01% trifluoroacetic acid was used to elute the samples directly onto a Sciex API4000 triple quadrupole mass spectrometer for 3000 ms at a flow rate of 1.25 ml/min.
MRM transitions for substrate and product were monitored in positive ESI mode at m/z=562.3/969.7 and m/z=562.8/541.3 respectively. The dwell time for each transition was set at 100 ms, and the ESI voltage was used at 5500 with a source temperature of 650° C. Extracted ion peaks for each transition were integrated using the Rapid Fire Integrator software.
For `COc1cc(C(=O)N2CCC[C@@H](N)C2)cc2sc(-c3cc4ccccc4n3CC3CC3)c(CCO)c12` [Example 622, (R)-(3-aminopiperidin-1-yl)(2-(1-(cyclopropylmethyl)-1H-indol-2-yl)-3-(2-hydroxyethyl)-4-methoxybenzo[b]thiophen-6-yl)methanone], the IC50 came out at 1.2 µM.

For `COc1cc(C(=O)N2C[C@H](N)C[C@@H](F)C2)cc2sc(-c3cc4ccccc4n3CC3CC3)c(CCO)c12` [Example 623, ((3R,5R)-3-amino-5-fluoropiperidin-1-yl)(2-(1-(cyclopropylmethyl)-1H-indol-2-yl)-3-(2-hydroxyethyl)-4-methoxybenzo[b]thiophen-6-yl)methanone], the IC50 is 0.395 µM. As to `COc1ccc2cc(-c3sc4cc(C(=O)N5C[C@H](N)C[C@@H](F)C5)cc(OC)c4c3CCO)n(CC3CC3)c2c1` [Example 624, ((3R,5R)-3-amino-5-fluoropiperidin-1-yl)(2-(1-(cyclopropylmethyl)-6-methoxy-1H-indol-2-yl)-3-(2-hydroxyethyl)-4-methoxybenzo[b]thiophen-6-yl)methanone], the IC50 was 0.383 µM.

Consider `COc1cc(C(=O)N2CCC[C@@H](N)C2)cc2sc(-c3cc4ccccc4n3CC3CC3)c(CCN)c12` [Example 625, (R)-(3-(2-aminoethyl)-2-(1-(cyclopropylmethyl)-1H-indol-2-yl)-4-methoxybenzo[b]thiophen-6-yl)(3-aminopiperidin-1-yl)methanone], for which the IC50 was 2.04 µM.

`Cc1c(-c2cc3ccccc3n2CC2CC2)sc2cc(C(=O)N3CCC[C@@H](N)C3)cc(CCO)c12` [Example 626, (R)-(3-aminopiperidin-1-yl)(2-(1-(cyclopropylmethyl)-1H-indol-2-yl)-4-(2-hydroxyethyl)-3-methylbenzo[b]thiophen-6-yl)methanone]: the IC50 was 0.849 µM. Then `Cc1c(-c2cc3ccccc3n2CC2CC2)sc2cc(C(=O)N3CCC[C@@H](N)C3)cc(CO)c12` [Example 627, (R)-(3-Aminopiperidin-1-yl)(2-(1-(cyclopropylmethyl)-1H-indol-2-yl)-4-(hydroxymethyl)-3-methylbenzo[b]thiophen-6-yl)methanone], with 0.879 µM.

On to `COc1ccc2cc(-c3oc4cc(C(=O)N5C[C@H](N)C[C@@H](F)C5)cc(OC)c4c3CCO)n(CC3CC3)c2c1` [Example 628, ((3R,5R)-3-Amino-5-fluoropiperidin-1-yl)(2-(1-(cyclopropylmethyl)-6-methoxy-1H-indol-2-yl)-3-(2-hydroxyethyl)-4-methoxybenzofuran-6-yl)methanone], for which the IC50 came to 0.322 µM.

As for `COc1cc(C(=O)N2C[C@H](N)C[C@@H](F)C2)cc2oc(-c3cc4cccnc4n3CC3CC3)c(CCO)c12` [Example 629, ((3R,5R)-3-amino-5-fluoropiperidin-1-yl)(2-(1-(cyclopropylmethyl)-1H-pyrrolo[2,3-b]pyridin-2-yl)-3-(2-hydroxyethyl)-4-methoxybenzofuran-6-yl)methanone], the IC50 is 0.785 µM. `COc1cc(C(=O)N2C[C@H](N)C[C@@H](F)C2)cc2oc(-c3cc4ccccc4n3CC3CC3)c(CCO)c12` [Example 630, ((3R,5R)-3-amino-5-fluoropiperidin-1-yl)(2-(1-(cyclopropylmethyl)-1H-indol-2-yl)-3-(2-hydroxyethyl)-4-methoxybenzofuran-6-yl)methanone]: the half-maximal inhibitory concentration (IC50) was found to be 0.288 µM. For the compound `CN[C@@H]1C[C@@H](F)CN(C(=O)c2cc(OC)c3c(CCO)c(-c4cc5ccccc5n4CC4CC4)oc3c2)C1` [Example 631, (2-(1-(cyclopropylmethyl)-1H-indol-2-yl)-3-(2-hydroxyethyl)-4-methoxybenzofuran-6-yl)((3R,5R)-3-fluoro-5-(methylamino)piperidin-1-yl)methanone], the 50% inhibitory concentration (IC50) turned out to be 7.58 µM. Then `COc1cc(C(=O)N2C[C@H](N)C[C@@H](F)C2)cc2oc(-c3cc4cccc(OC)c4n3CC3CC3)c(CCO)c12` [Example 632, ((3R,5R)-3-amino-5-fluoropiperidin-1-yl)(2-(1-(cyclopropylmethyl)-7-methoxy-1H-indol-2-yl)-3-(2-hydroxyethyl)-4-methoxybenzofuran-6-yl)methanone], with 0.327 µM. Turning to `COc1cc(C(=O)N2C[C@H](N)C[C@@H](F)C2)cc2oc(-c3cc4cccc(OCC5CNC(=O)C5)c4n3CC3CC3)c(CCO)c12` (stereo partly drawn) [Example 633, 4-(((2-(6-((3R,5R)-3-amino-5-fluoropiperidine-1-carbonyl)-3-(2-hydroxyethyl)-4-methoxybenzofuran-2-yl)-1-(cyclopropylmethyl)-1H-indol-7-yl)oxy)methyl)pyrrolidin-2-one], the IC50 was 0.179 µM. Then `COc1cc(C(=O)N2C[C@H](N)C[C@@H](F)C2)cc2oc(-c3cc4cccc(OCCO)c4n3CC3CC3)c(CCO)c12` [Example 634, ((3R,5R)-3-amino-5-fluoropiperidin-1-yl)(2-(1-(cyclopropylmethyl)-7-(2-hydroxyethoxy)-1H-indol-2-yl)-3-(2-hydroxyethyl)-4-methoxybenzofuran-6-yl)methanone], with 0.209 µM; and `COc1cc(C(=O)N2C[C@H](N)C[C@@H](F)C2)cc2oc(-c3cc4cccc(OCCn5cncn5)c4n3CC3CC3)c(CCO)c12` [Example 635, (2-(7-(2-(1H-1,2,4-triazol-1-yl)ethoxy)-1-(cyclopropylmethyl)-1H-indol-2-yl)-3-(2-hydroxyethyl)-4-methoxybenzofuran-6-yl)((3R,5R)-3-amino-5-fluoropiperidin-1-yl)methanone], with 0.216 µM. For the compound `COc1cc(C(=O)N2C[C@H](N)C[C@@H](F)C2)cc2oc(-c3cc4cccc(OCC5CNC5)c4n3CC3CC3)c(CCO)c12` [Example 636, ((3R,5R)-3-amino-5-fluoropiperidin-1-yl)(2-(7-(azetidin-3-ylmethoxy)-1-(cyclopropylmethyl)-1H-indol-2-yl)-3-(2-hydroxyethyl)-4-methoxybenzofuran-6-yl)methanone], the IC50 came to 0.277 µM.

With `COc1cc(C(=O)N2C[C@H](N)C[C@@H](F)C2)cc2oc(-c3cc4cccc(OCC5CN(C)C5)c4n3CC3CC3)c(CCO)c12` [Example 637, ((3R,5R)-3-amino-5-fluoropiperidin-1-yl)(2-(1-(cyclopropylmethyl)-7-((1-methylazetidin-3-yl)methoxy)-1H-indol-2-yl)-3-(2-hydroxyethyl)-4-methoxybenzofuran-6-yl)methanone], the half-maximal inhibitory concentration (IC50) amounted to 0.621 µM. Then `COc1cc(C(=O)N2C[C@H](N)C[C@@H](F)C2)cc2oc(-c3cc4cccc(OCC5COC5)c4n3CC3CC3)c(CCO)c12` [Example 638, ((3R,5R)-3-amino-5-fluoropiperidin-1-yl)(2-(1-(cyclopropylmethyl)-7-(oxetan-3-ylmethoxy)-1H-indol-2-yl)-3-(2-hydroxyethyl)-4-methoxybenzofuran-6-yl)methanone], with 0.295 µM. Then `COc1cc(C(=O)N2C[C@H](N)C[C@@H](F)C2)cc2oc(-c3cc4cccc(OCc5ncno5)c4n3CC3CC3)c(CCO)c12` [Example 639, (2-(7-((1,2,4-oxadiazol-5-yl)methoxy)-1-(cyclopropylmethyl)-1H-indol-2-yl)-3-(2-hydroxyethyl)-4-methoxybenzofuran-6-yl)((3R,5R)-3-amino-5-fluoropiperidin-1-yl)methanone], with 0.243 µM.
